# Reference: US8962830B2, “Protein kinase inhibitors and methods of treatment” (The Walter and Eliza Hall Institute of Medical Research, priority 2010, dated 2015)
# Biological target: T1, Src recombinant enzyme, N-terminally His6 tagged full-length human protein (Homo sapiens, UniProt P12931)
# T1 construct: Src recombinant enzyme was purchased as N-terminally His6 tagged full-length human protein; His6 (N); purchased
# Experiment: SRC kinase inhibition assay (AlphaScreen)
# Format: biochemical
# Conditions: 80 μM ATP, 90 minutes at 30 degree Celsius
# Protocol: Protocol for SRC Kinase Inhibition Assay. Compounds of the invention were tested for in vitro activity in the following assay: A biotin labeled peptide was used as substrate (amino acid sequence: Biotin-[…]). Src recombinant enzyme was purchased as N-terminally His6 tagged full-length human protein. The 15 μL assay reactions were run in Greiner brand white 384-well low volume plates. […] Compounds were added in a volume of 100 nL from dilution series made up in DMSO, positive and negative control reactions receiving the same volume DMSO without compounds. The plates were sealed with adhesive seals and incubated for 90 minutes at 30 degree Celsius. The reactions were stopped with the detection reagents added at the same time. Product formation was quantified as photochemiluminescence between PerkinElmer AlphaScreenTM beads, using Streptavidin-coated donor and anti-phosphotyrosine (P-[…]) acceptor beads. […] Plates were incubated for 5 hours before being read on a PerkinElmer EnVisionTM plate reader in HTS AlphascreenTM mode. IC50 values were obtained by calculating percent inhibition (% I) for each reaction relative to controls on the same plate (% [SMILES] where CN/CP are the averages of the negative/positive reactions, respectively), then fitting the % I data vs. compound concentration [I] to % I=([…])))) where A is the lower asymptote, B is the upper asymptote, C is the IC50 value, and D is the slope factor.
# T1 sequence (P12931 whole entry): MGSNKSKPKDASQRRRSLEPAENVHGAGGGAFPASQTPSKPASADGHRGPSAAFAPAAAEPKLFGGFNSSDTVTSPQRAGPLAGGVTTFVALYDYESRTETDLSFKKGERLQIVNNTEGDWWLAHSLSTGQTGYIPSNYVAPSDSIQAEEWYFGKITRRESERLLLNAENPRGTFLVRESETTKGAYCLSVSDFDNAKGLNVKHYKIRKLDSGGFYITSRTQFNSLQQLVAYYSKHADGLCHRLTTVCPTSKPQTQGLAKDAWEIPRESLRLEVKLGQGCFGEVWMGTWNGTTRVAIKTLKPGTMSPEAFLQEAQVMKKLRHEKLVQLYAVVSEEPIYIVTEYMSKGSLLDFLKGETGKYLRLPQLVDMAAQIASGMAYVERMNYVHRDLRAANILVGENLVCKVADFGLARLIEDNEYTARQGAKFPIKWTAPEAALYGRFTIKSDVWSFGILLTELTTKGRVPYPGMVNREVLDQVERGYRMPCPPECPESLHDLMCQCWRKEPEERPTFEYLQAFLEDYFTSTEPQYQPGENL
row,SMILES,IC50
1,Cc1ccc(-c2nn(C(C)(C)CNC(=O)CCCCCN)c3ncnc(N)c23)cc1 [84 (compound 84C)],100 to 1000 nM
2,Cc1ccc(-c2nn(C(C)(C)CNC(=O)c3cc(CN4CCCCC4)ccn3)c3ncnc(N)c23)cc1 [Example 82],1 to 100 nM
3,Cc1ccc(-c2nn(C(C)(C)CNC(=O)c3cnc4ccccc4n3)c3ncnc(N)c23)cc1 [Example 51],100 to 1000 nM
4,Cc1ccc(-c2nn(C(C)(C)CNC(=O)c3cccc(F)c3)c3ncnc(N)c23)cc1 [Example 55],1000 to 10000 nM
5,Cc1ccc(-c2nn(C(C)(C)CNC(=O)c3ccccc3F)c3ncnc(N)c23)cc1 [Example 54],100 to 1000 nM
6,Cc1ccc(-c2nn(C(C)(C)CNC3=NCCN3)c3ncnc(N)c23)cc1 [Example 78],100 to 1000 nM
7,Cc1ccc(-c2nn(C(C)(C)CNC(=O)c3cccn3C)c3ncnc(N)c23)cc1 [Example 33],100 to 1000 nM
8,Cc1ccc(-c2nn(C(C)(C)CNC(=O)c3ccnc(Cl)n3)c3ncnc(N)c23)cc1 [Example 44],100 to 1000 nM
9,Cc1ccc(-c2nn(C(C)(C)CNC(=O)c3ncccn3)c3ncnc(N)c23)cc1 [Example 58],1 to 100 nM
10,Cc1ccc(-c2nn(C(C)(C)CNS(=O)(=O)c3ccccn3)c3ncnc(N)c23)cc1 [68 (compound 68B)],100 to 1000 nM
11,Cc1ccc(-c2nn(C(C)(C)CNC(=O)c3cccc(Br)n3)c3ncnc(N)c23)cc1 [Example 40],100 to 1000 nM
12,CC(=O)CCCCC(=O)NCC(C)(C)n1nc(-c2ccc(C)cc2)c2c(N)ncnc21 [Example 30],100 to 1000 nM
13,Cc1ccc(-c2nn(C(C)(C)CNC(C)C)c3ncnc(N)c23)cc1 [Example 8],100 to 1000 nM
14,Cc1ccc(-c2nn(C(C)(C)CNC(=O)c3ccc(Cl)nc3Cl)c3ncnc(N)c23)cc1 [Example 47],100 to 1000 nM
15,Cc1ccc(-c2nn(C(C)(C)CNC(=O)c3cccc(N4CCCCC4)c3)c3ncnc(N)c23)cc1 [Example 22],100 to 1000 nM
16,Cc1ccc(-c2nn(C(C)(C)CNC(=O)c3cnn(-c4cccc(Cl)c4)c3C(F)(F)F)c3ncnc(N)c23)cc1 [Example 26],1 to 100 nM
17,Cc1ccc(-c2nn(C(C)(C)CNC(=O)c3cnn(-c4ccc(F)cc4)c3C(F)(F)F)c3ncnc(N)c23)cc1 [Example 28],1 to 100 nM
18,CC(=O)CCCC(=O)NCC(C)(C)n1nc(-c2ccc(C)cc2)c2c(N)ncnc21 [Example 31],100 to 1000 nM
19,CC(=O)c1ccc(OCC(=O)NCC(C)(C)n2nc(-c3ccc(C)cc3)c3c(N)ncnc32)cc1 [Example 25],1000 to 10000 nM

row,SMILES,IC50
1,Cc1ccc(-c2nn(C(C)(C)CNC(=O)c3cc(-c4ccco4)on3)c3ncnc(N)c23)cc1 [Example 23],1 to 100 nM
2,Cc1ccc(-c2nn(C(C)(C)CNC(=O)c3ccncc3)c3ncnc(N)c23)cc1 [Example 67],1000 to 10000 nM
3,Cc1ccc(-c2nn(C(C)(C)CNC(=O)CCCOCc3ccccc3)c3ncnc(N)c23)cc1 [Example 35],100 to 1000 nM
4,COCCOc1ccnc(C(=O)NCC(C)(C)n2nc(-c3ccc(C)cc3)c3c(N)ncnc32)c1 [Example 89],1 to 100 nM
5,Cc1ccc(-c2nn(C(C)(C)CNC(=O)c3ccccc3-n3ccnc3)c3ncnc(N)c23)cc1 [Example 14],100 to 1000 nM
6,CCN(CC)c1ccc(C(=O)NCC(C)(C)n2nc(-c3ccc(C)cc3)c3c(N)ncnc32)cc1 [Example 38],100 to 1000 nM
7,Cc1ccc(-c2nn(C(C)(C)CNC(=O)c3ccnc(Cl)c3)c3ncnc(N)c23)cc1 [Example 43],100 to 1000 nM
8,Cc1ccc(-c2nn(C(C)(C)CNC(=O)CCOc3ccccc3)c3ncnc(N)c23)cc1 [Example 39],100 to 1000 nM
9,Cc1ccc(-c2nn(C(C)(C)CNC(=O)c3ccc(Br)cn3)c3ncnc(N)c23)cc1 [Example 45],1000 to 10000 nM
10,CNCC(C)(C)n1nc(-c2ccc(C)cc2)c2c(N)ncnc21 [4 (compound 4C)],100 to 1000 nM
11,Cc1ccc(-c2nn(C(C)(C)CNC(=N)NC#N)c3ncnc(N)c23)cc1 [Example 81],1 to 100 nM
12,CC(=O)NCC(C)(C)n1nc(-c2ccc(C)cc2)c2c(N)ncnc21 [Example 2],100 to 1000 nM
13,Cc1ccc(-c2nn(C(C)(C)CNC(=O)c3cnn(-c4ccc(Br)cc4)c3C(F)(F)F)c3ncnc(N)c23)cc1 [Example 29],100 to 1000 nM
14,Cc1ccc(-c2nn(C(C)(C)CNC(=O)CCCc3ccccc3)c3ncnc(N)c23)cc1 [Example 20],100 to 1000 nM
15,Cc1ccc(-c2nn(C(C)(C)CNC(=O)c3cccc(N4CCOCC4)c3)c3ncnc(N)c23)cc1 [Example 18],100 to 1000 nM
16,Cc1ccc(-c2nn(C(C)(C)CNC(=O)c3ccc(CCN)cc3)c3ncnc(N)c23)cc1 [10 (compound 10C)],1 to 100 nM
17,Cc1ccc(-c2nn(C(C)(C)CNC(=O)c3cc(CN4CCOCC4)ccn3)c3ncnc(N)c23)cc1 [Example 83],1 to 100 nM
18,Cc1ccc(-c2nn(C(C)(C)CNC(=O)CCCN)c3ncnc(N)c23)cc1 [85 (compound 85C)],100 to 1000 nM
19,Cc1ccc(-c2nn(C(C)(C)CNC(=O)c3ccc(N4CCCCC4)cc3)c3ncnc(N)c23)cc1 [Example 21],100 to 1000 nM

row,SMILES,IC50
1,CC(=N)NCC(C)(C)n1nc(-c2ccc(C)cc2)c2c(N)ncnc21 [Example 80],100 to 1000 nM
2,Cc1ccc(-c2nn(C(C)(C)CNC(=O)c3cc(C)nn3Cc3ccc(F)cc3)c3ncnc(N)c23)cc1 [Example 27],100 to 1000 nM
3,CCNC(=O)NCC(C)(C)n1nc(-c2ccc(C)cc2)c2c(N)ncnc21 [Example 7],1 to 100 nM
4,Cc1ccc(-c2nn(C(C)(C)CNC(=O)c3ccc(F)cc3)c3ncnc(N)c23)cc1 [Example 53],100 to 1000 nM
5,Cc1ccc(-c2nn(C(C)(C)CNC(=O)CCCCCNC(=O)OCc3ccccc3)c3ncnc(N)c23)cc1 [Example 15],100 to 1000 nM
6,Cc1ccc(-c2nn(C(C)(C)CNC(=N)N)c3ncnc(N)c23)cc1 [5 (compound 5B)],1 to 100 nM
7,Cc1ccc(-c2nn(C(C)(C)CNC(=O)c3nc(Cl)ccc3Cl)c3ncnc(N)c23)cc1 [Example 48],100 to 1000 nM
8,Cc1ccc(-c2nn(C(C)(C)CNC(=O)CC#N)c3ncnc(N)c23)cc1 [Example 19],1 to 100 nM
9,COCCC(=O)NCC(C)(C)n1nc(-c2ccc(C)cc2)c2c(N)ncnc21 [Example 17],1 to 100 nM
10,Cc1ccc(-c2nn(C(C)(C)CN(C)C)c3ncnc(N)c23)cc1 [Example 3],1000 to 10000 nM
11,Cc1ccc(-c2nn(C(C)(C)CNC(=O)c3cccc(C#N)c3)c3ncnc(N)c23)cc1 [Example 34],100 to 1000 nM
12,Cc1ccc(-c2nn(C(C)(C)CNC(=O)c3cc(-c4ccc(F)cc4)ncn3)c3ncnc(N)c23)cc1 [Example 24],1000 to 10000 nM
13,Cc1ccc(-c2nn(C(C)(C)CNC(=O)c3ccc(C)cn3)c3ncnc(N)c23)cc1 [Example 72],1 to 100 nM
14,CCOc1ccc(C(=O)NCC(C)(C)n2nc(-c3ccc(C)cc3)c3c(N)ncnc32)cc1Cl [Example 32],100 to 1000 nM
15,Cc1ccc(-c2nn(C(C)(C)CNC(=O)c3cc(N4CCCCC4)ccn3)c3ncnc(N)c23)cc1 [69 (compound 69C)],1 to 100 nM
16,Cc1ccc(-c2nn(C(C)(C)CNC(=O)c3ccnnc3)c3ncnc(N)c23)cc1 [Example 46],100 to 1000 nM
17,CC(=O)CCC(=O)NCC(C)(C)n1nc(-c2ccc(C)cc2)c2c(N)ncnc21 [Example 16],1000 to 10000 nM
18,Cc1ccc(-c2nn(C(C)(C)CNC(=O)Cc3ccccc3)c3ncnc(N)c23)cc1 [Example 9],1000 to 10000 nM
19,Cc1ccc(-c2nn(C(C)(C)CNC(=O)c3nc(Cl)ccc3Br)c3ncnc(N)c23)cc1 [Example 49],1000 to 10000 nM
